{"source": "ChEMBL document CHEMBL1123608", "about": "“In vivo antitumor activity of 6-benzyl-1,3-benzodioxole derivatives against the P388, L1210, B16, and M5076 murine models” (1987)", "key": {"Mus musculus [1]": {"system": "Mus musculus", "assay": "The percent increase in life span on P388 cells which were inoculated intraperitoneally in CD2F1 mice at 400 mg/kg (tested in the same control) dose placed at ranking order 4", "format": "functional", "settings": "P388, ip, route intraperitoneal"}, "Mus musculus [2]": {"system": "Mus musculus", "assay": "Percent increase in life span (ILS) was measured on P388 cells which were inoculated intraperitoneally in CD2F1 mice", "format": "functional"}, "[3]": {"assay": "Ability to inhibit the dibutyryl-cAMP-induced change of an immature glioma cell to a mature, differentiated astrocyte by in vitro astrocytoma assay at 10 ug/mL dose (Experiment #2) value may range from 31 to 50", "format": "functional, Mus musculus"}, "Mus musculus [4]": {"system": "Mus musculus", "assay": "In vivo antitumor activity against the M5076 reticulum cell sarcoma expressed as percent increase in life span at 800 mg/kg doseEach represents a pair of experiments performed with the same control group", "format": "functional"}, "Mus musculus [5]": {"system": "Mus musculus", "assay": "In vivo antitumor activity against the B16 melanoma cell line expressed as percent increase in life span at 200 mg/kg dose", "format": "functional"}, "Mus musculus [6]": {"system": "Mus musculus", "assay": "In vivo antitumor activity against the L1210 leukemia cell line expressed as percent increase in life span at 200 mg/kg dose", "format": "functional", "settings": "Mus musculus, L1210, dose 200 mg/kg"}, "Mus musculus [7]": {"system": "Mus musculus", "assay": "In vivo antitumor activity against the L1210 leukemia cell line expressed as percent increase in life span at 400 mg/kg dose", "format": "functional"}, "Mus musculus [8]": {"system": "Mus musculus", "assay": "The percent increase in life span on P388 cells which were inoculated intraperitoneally in CD2F1 mice at 200 mg/kg dose placed at ranking order 1", "format": "functional", "settings": "P388, ip, route intraperitoneal"}, "Mus musculus [9]": {"system": "Mus musculus", "assay": "The percent increase in life span on P388 cells which were inoculated intraperitoneally in CD2F1 mice at 800 mg/kg dose placed at ranking order 2", "format": "functional", "settings": "P388, ip, route intraperitoneal"}, "[10]": {"assay": "Ability to inhibit the dibutyryl-cAMP-induced change of an immature glioma cell to a mature, differentiated astrocyte by in vitro astrocytoma assay at 1 ug/mL dose (Experiment #2) value may range from 0 to 5", "format": "functional, Mus musculus"}, "Mus musculus [11]": {"system": "Mus musculus", "assay": "The percent increase in life span on P388 cells which were inoculated intraperitoneally in CD2F1 mice at 200 mg/kg dose placed at ranking order 3", "format": "functional", "settings": "P388, ip, route intraperitoneal"}, "Mus musculus [12]": {"system": "Mus musculus", "assay": "In vivo antitumor activity against the B16 melanoma cell line expressed as percent increase in life span at 100 mg/kg dose", "format": "functional"}, "[13]": {"assay": "Ability to inhibit the dibutyryl-cAMP-induced change of an immature glioma cell to a mature, differentiated astrocyte by in vitro astrocytoma assay at 1 ug/mL dose (Experiment #1) value may range from 0 to 5", "format": "functional, Mus musculus"}, "[14]": {"assay": "Ability to inhibit the dibutyryl-cAMP-induced change of an immature glioma cell to a mature, differentiated astrocyte by in vitro astrocytoma assay at 100 ug/mL dose (Experiment #1) value may range from 51 to 70", "format": "functional, Mus musculus"}, "[15]": {"assay": "Ability to inhibit the dibutyryl-cAMP-induced change of an immature glioma cell to a mature, differentiated astrocyte by in vitro astrocytoma assay at 10 ug/mL dose (Experiment #1) value may range from 6 to 15", "format": "functional, Mus musculus"}, "Mus musculus [16]": {"system": "Mus musculus", "assay": "In vivo antitumor activity against the M5076 reticulum cell sarcoma expressed as percent increase in life span at 400 mg/kg dose", "format": "functional"}, "[17]": {"assay": "Ability to inhibit the dibutyryl-cAMP-induced change of an immature glioma cell to a mature, differentiated astrocyte by in vitro astrocytoma assay at 100 ug/mL dose (Experiment #2) value may range from 31 to 50", "format": "functional, Mus musculus"}, "Mus musculus [18]": {"system": "Mus musculus", "assay": "The percent increase in life span on P388 cells which were inoculated intraperitoneally in CD2F1 mice at 200 mg/kg dose placed at ranking order 2", "format": "functional", "settings": "P388, ip, route intraperitoneal"}, "Mus musculus [19]": {"system": "Mus musculus", "assay": "The percent increase in life span on P388 cells which were inoculated intraperitoneally in CD2F1 mice at 400 mg/kg dose placed at ranking order 3", "format": "functional", "settings": "P388, ip, route intraperitoneal"}, "Mus musculus [20]": {"system": "Mus musculus", "assay": "The percent increase in life span on P388 cells which were inoculated intraperitoneally in CD2F1 mice at 400 mg/kg (tested in the same control) dose placed at ranking order 1", "format": "functional", "settings": "P388, ip, route intraperitoneal"}, "Mus musculus [21]": {"system": "Mus musculus", "assay": "The percent increase in life span on P388 cells which were inoculated intraperitoneally in CD2F1 mice at 400 mg/kg dose placed at ranking order 4", "format": "functional", "settings": "P388, ip, route intraperitoneal"}}}
{"smiles": "C=CCOc1cc2c(cc1C(C)c1ccc(OC)cc1)OCO2", "note": "(configuration not stated)", "values": [{"measurement": "ILS at 400 mg/kg", "setting": "Mus musculus [1]", "value": 39, "unit": "%"}, {"measurement": "ILS", "setting": "Mus musculus [2]", "value": 88, "unit": "%"}, {"measurement": "Astrocyte reversal", "setting": "[3]", "value": 50, "unit": "%"}, {"measurement": "ILS at 800 mg/kg", "setting": "Mus musculus [4]", "value": 58, "unit": "%"}, {"measurement": "ILS at 200 mg/kg", "setting": "Mus musculus [5]", "value": 55, "unit": "%"}, {"measurement": "ILS at 200 mg/kg", "setting": "Mus musculus [6]", "value": 43, "unit": "%"}, {"measurement": "ILS at 400 mg/kg", "setting": "Mus musculus [7]", "value": 39, "unit": "%"}, {"measurement": "ILS at 200 mg/kg", "setting": "Mus musculus [8]", "value": 88, "unit": "%"}, {"measurement": "ILS at 800 mg/kg", "setting": "Mus musculus [9]", "value": 84, "unit": "%"}, {"measurement": "Astrocyte reversal", "setting": "[10]", "value": 5, "unit": "%"}, {"measurement": "ILS at 200 mg/kg", "setting": "Mus musculus [11]", "value": 41, "unit": "%"}, {"measurement": "ILS at 100 mg/kg", "setting": "Mus musculus [12]", "value": 27, "unit": "%"}, {"measurement": "Astrocyte reversal", "setting": "[13]", "value": 5, "unit": "%"}, {"measurement": "Astrocyte reversal", "setting": "[14]", "value": 70, "unit": "%"}, {"measurement": "Astrocyte reversal", "setting": "[15]", "value": 15, "unit": "%"}, {"measurement": "ILS at 400 mg/kg", "setting": "Mus musculus [16]", "value": 33, "unit": "%"}, {"measurement": "Astrocyte reversal", "setting": "[17]", "value": 50, "unit": "%"}]}
{"smiles": "CCCOc1cc2c(cc1C(C)c1ccc(OC)cc1)OCO2", "note": "(configuration not stated)", "values": [{"measurement": "ILS", "setting": "Mus musculus [2]", "value": 30, "unit": "%"}, {"measurement": "ILS at 200 mg/kg", "setting": "Mus musculus [18]", "value": 21, "unit": "%"}, {"measurement": "ILS at 400 mg/kg", "setting": "Mus musculus [19]", "value": 14, "unit": "%"}, {"measurement": "ILS at 400 mg/kg", "setting": "Mus musculus [20]", "value": 30, "unit": "%"}, {"measurement": "ILS at 400 mg/kg", "setting": "Mus musculus [21]", "value": 12, "unit": "%"}]}
